Earlier results in patent US8791150B2, “Pharmaceutical composition for peroral administration of diindolylmethane” (Zakrytoe Aktsionernoe Obschestvo “Veles Farma”, priority 2009, dated 2014).

Assays:
[1] = tested on: pathological neoangiogenesis; conditions: injected subcutaneously, 5 mg/kg daily; cited from earlier work
[2] = tested on: normal (untransformed) keratinocytes; conditions: in vitro; cited from earlier work
[3] = tested on: cellular cervical cancer lines; conditions: one of the three cellular cervical cancer lines studied; cited from earlier work

Row | SMILES | suppression of pathological neoangiogenesis [1] | apoptotic changes in normal keratinocytes [2] | LD50 [3]
1 | c1ccc2c(Cc3c[nH]c4ccccc34)c[nH]c2c1 [DIM, 3,3′-diindolylmethane] | 74% | did not induce any apoptotic changes | –
2 | OCc1c[nH]c2ccccc12 [Pluronic I3C, indole-3-carbinol] | – | – | 200 µM
